Reference: publication PMC12064818, “A general assay platform to study protein pharmacology using ligand-dependent structural dynamics” (Nature Communications, 2025)
Several values for one entry are separate records, joined by “and”; a condition that tells them apart may be missing. Equal values may be shown once. Read-outs that look alike come from different tables or passages of the source.

How the values were obtained:
[1] = biological target: T1, NLuc (Oplophorus gracilirostris, UniProt Q9GV45, A31E/A60N/A81I/F95D/I117V/K70R/L54V/L99Q/M102K/N193R/P142E/Q151K/Q38R/Q45L/V71I/Y165I); assay type: biochemical; conditions: 32.8 µM ligand; for SDR assay statistics Ave RLU / SDR assay statistics S:B / SDR assay statistics S:N / SDR assay statistics Z’: Standard functional and SDR assays are the same
T1 construct: His tag (inferred from IMAC purification); made in house; host or cells: E. coli
Procedure, shortened: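 Test compounds added to 1 nM NLuc in PBS with 0.05% IGEPAL, ± ATP. Nano-Glo reagent added and incubated 10 min before luminescence read.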

[2] = biological target: FLuc-C-NLuc (firefly luciferase) (Photinus pyralis, UniProt P08659, form not given/L550V); assay: SDR assay, FLuc-C-NLuc; conditions: for SDR + 10 mM ATP / SDR No ATP: 1 nM FLuc-C-NLuc, Log [PTC124], replicates
FLuc-C-NLuc (firefly luciferase), sequence (P08659 2-550 L550V, form open): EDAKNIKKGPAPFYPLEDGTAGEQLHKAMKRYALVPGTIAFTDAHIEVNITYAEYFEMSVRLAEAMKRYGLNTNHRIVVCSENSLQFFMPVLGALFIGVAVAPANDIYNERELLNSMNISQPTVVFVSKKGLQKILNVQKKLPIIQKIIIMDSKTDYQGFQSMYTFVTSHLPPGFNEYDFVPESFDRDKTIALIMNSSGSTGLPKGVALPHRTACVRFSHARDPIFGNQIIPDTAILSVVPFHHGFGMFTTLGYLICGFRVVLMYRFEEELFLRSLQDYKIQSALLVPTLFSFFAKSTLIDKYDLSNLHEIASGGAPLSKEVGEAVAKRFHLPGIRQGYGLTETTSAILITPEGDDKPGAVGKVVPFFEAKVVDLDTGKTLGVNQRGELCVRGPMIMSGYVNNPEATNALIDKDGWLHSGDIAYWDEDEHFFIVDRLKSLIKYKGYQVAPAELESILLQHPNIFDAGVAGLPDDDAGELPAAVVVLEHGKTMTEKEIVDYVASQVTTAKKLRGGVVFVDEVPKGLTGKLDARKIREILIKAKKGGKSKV

T1 sequence (Q9GV45 other isoform, or with tags, fused parts or gaps with the stated changes): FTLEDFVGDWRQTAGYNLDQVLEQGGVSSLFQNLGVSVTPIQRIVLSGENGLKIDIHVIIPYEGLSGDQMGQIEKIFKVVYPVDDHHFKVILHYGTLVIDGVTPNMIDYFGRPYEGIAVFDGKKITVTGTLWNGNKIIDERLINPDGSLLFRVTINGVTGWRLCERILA

## O=C(O)c1cccc(-c2noc(-c3ccccc3F)n2)c1 [PTC124, reference compound]
[1]; NLuc (1 nM) + 10 mM ATP
  Standard assay statistics Ave RLU: 17397.2 RLU
  Standard assay statistics S:B: 1.0
  Standard assay statistics S:N: 0.0
  Standard assay statistics Z’: -163.485
  SDR assay statistics Ave RLU: 17397.2 RLU
  SDR assay statistics S:B: 1.0
  SDR assay statistics S:N: 0.0
  SDR assay statistics Z’: -163.485
[1]; NLuc (1 nM) No ATP
  Standard assay statistics Ave RLU: 20065.5 RLU
  Standard assay statistics S:B: 1.0
  Standard assay statistics S:N: 0.0
  Standard assay statistics Z’: -167.215
  SDR assay statistics Ave RLU: 20065.5 RLU
  SDR assay statistics S:B: 1.0
  SDR assay statistics S:N: 0.0
  SDR assay statistics Z’: -167.215
[2]; 0 μM ATP
  pSDR50, FLuc-C-NLuc (1 nM): 5.88 ± 0.04
[2]; M -4.48
  SDR + 10 mM ATP: 7557.2 RLU and 7497.6 RLU and 7631.5 RLU and 7551.6 RLU and 7524.6 RLU and 7378.2 RLU
  SDR No ATP: 7094.5 RLU and 7036.1 RLU and 7197.7 RLU and 7251.5 RLU and 7107.6 RLU and 7010.0 RLU
[2]; M -4.96
  SDR + 10 mM ATP: 8653.1 RLU and 8918.3 RLU and 8729.5 RLU and 8753.4 RLU and 8625.3 RLU and 8631.1 RLU
  SDR No ATP: 7649.4 RLU and 7690.6 RLU and 7782.9 RLU and 7784.7 RLU and 7753.8 RLU and 7789.6 RLU
[2]; M -5.44
  SDR + 10 mM ATP: 9503.1 RLU and 9394.8 RLU and 9366.2 RLU and 9511.1 RLU and 9276.8 RLU and 9264.6 RLU
  SDR No ATP: 7463.4 RLU and 7521.3 RLU and 7506.8 RLU and 7660.8 RLU and 7389.5 RLU and 7591.3 RLU
[2]; M -5.91
  SDR + 10 mM ATP: 9834.3 RLU and 9880.8 RLU and 9675.2 RLU and 9786.2 RLU and 9362.5 RLU and 9414.4 RLU
  SDR No ATP: 7041.2 RLU and 7015.2 RLU and 7004.0 RLU and 7050.2 RLU and 7076.1 RLU and 7039.0 RLU
[2]; M -6.39
  SDR + 10 mM ATP: 9915.0 RLU and 9970.8 RLU and 10012.5 RLU and 10081.2 RLU and 9830.9 RLU and 9904.0 RLU
  SDR No ATP: 6691.1 RLU and 6782.7 RLU and 6754.8 RLU and 6847.3 RLU and 6762.8 RLU and 6799.3 RLU
[2]; M -6.87
  SDR + 10 mM ATP: 10082.6 RLU and 10234.0 RLU and 10143.0 RLU and 10158.0 RLU and 9950.0 RLU and 10015.6 RLU
  SDR No ATP: 6611.5 RLU and 6294.6 RLU and 6649.4 RLU and 6762.3 RLU and 6579.8 RLU and 6635.0 RLU
[2]; M -7.35
  SDR + 10 mM ATP: 10197.1 RLU and 10347.4 RLU and 10179.3 RLU and 10327.2 RLU and 10158.4 RLU and 10151.6 RLU
  SDR No ATP: 6611.5 RLU and 6675.5 RLU and 6753.6 RLU and 6721.7 RLU and 6667.7 RLU and 6659.2 RLU
[2]; M -7.82
  SDR + 10 mM ATP: 10273.2 RLU and 10529.0 RLU and 10260.9 RLU and 10390.3 RLU and 10195.8 RLU and 10173.3 RLU
  SDR No ATP: 6601.3 RLU and 6794.9 RLU and 6657.3 RLU and 6777.0 RLU and 6066.9 RLU and 6627.0 RLU
[2]; M -8.30
  SDR + 10 mM ATP: 10428.2 RLU and 10351.9 RLU and 10431.4 RLU and 10340.3 RLU and 10350.0 RLU and 10135.7 RLU
  SDR No ATP: 6797.1 RLU and 6778.7 RLU and 6811.3 RLU and 6783.1 RLU and 6776.8 RLU and 6755.1 RLU
[2]; M -8.78
  SDR + 10 mM ATP: 10307.0 RLU and 10240.9 RLU and 10295.8 RLU and 10255.7 RLU and 10212.3 RLU and 10156.0 RLU
  SDR No ATP: 6765.6 RLU and 6820.8 RLU and 6789.0 RLU and 6870.9 RLU and 6762.2 RLU and 6786.7 RLU
[2]; M -9.25
  SDR + 10 mM ATP: 9955.6 RLU and 10061.6 RLU and 10070.3 RLU and 10144.7 RLU and 9901.2 RLU and 9937.3 RLU
  SDR No ATP: 6778.5 RLU and 6738.4 RLU and 6784.4 RLU and 6835.7 RLU and 6812.5 RLU and 6775.6 RLU
[2]; M -9.73
  SDR + 10 mM ATP: 9060.9 RLU and 8791.4 RLU and 9269.7 RLU and 9103.3 RLU and 8979.5 RLU and 9077.2 RLU
  SDR No ATP: 6814.0 RLU and 6880.4 RLU and 6857.6 RLU and 6871.7 RLU (2×) and 6648.1 RLU
[2]; M -10.21
  SDR + 10 mM ATP: 8039.8 RLU and 7910.0 RLU and 8237.3 RLU and 8034.2 RLU and 8059.8 RLU and 8095.1 RLU
  SDR No ATP: 6863.1 RLU and 6890.7 RLU and 6909.9 RLU and 6915.4 RLU and 6885.5 RLU and 6851.9 RLU
[2]; M -10.69
  SDR + 10 mM ATP: 7243.2 RLU and 7192.1 RLU and 7498.0 RLU and 7333.4 RLU and 7436.9 RLU and 7459.7 RLU
  SDR No ATP: 6866.7 RLU and 6851.6 RLU (2×) and 6906.1 RLU and 6919.7 RLU and 6944.4 RLU
